Reference: US20230083012A1, “DIHYDROPYRIMIDINE DERIVATIVES AND USES THEREOF IN THE TREATMENT OF HBV INFECTION OR OF HBV-INDUCED DISEASES” (priority 2019, published 2023)

Key:
[1] = test system: HBV; assay: Anti-HBV activity in HepG2.2.15 cells (HBV DNA in culture medium by qPCR); format: cell-based; conditions: Hepatitis B virus, HepG2.2.15, 144 h, HepG2.2.15 cells, 6 days treatment, HBV DNA in culture medium quantified by real-time PCR; read-out: EC50
Summary of the method: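 Secreted HBV DNA was measured by real-time PCR after 6-day compound exposure of HepG2.2.15 cells (2% FBS, 37 °C, re-dosed after 3 days), giving EC50 from 8-point 1:3 series starting at 10 or 1 uM. Cytotoxicity (CC50) run separately at lower cell density, top 100 uM.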

[2] = Cytotoxicity determination in HepG2.2.15 cells (CCK-8 cell viability); format: cell-based; conditions: human, 6 days treatment, CCK-8 assay, highest concentration 100 uM
Summary of the method: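 Viability measured by CCK-8 absorbance (450 nm, 630 nm reference, 2.5 h at 37° C) after six days of treatment, medium and compound renewed on day 3. Top concentration 100 uM, eight threefold dilutions in triplicate; cells plated at 5,000/well in 2% FBS medium; CC50 derived.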

Structure (SMILES) | EC50 [1] [nM] | CC50 at 6 days [2] [nM]
CCOC(=O)C1=C(CN2CC(F)(F)[C@@H]3C(=O)N([C@@H](C)C(=O)O)C[C@@H]32)NC(c2nccs2)=N[C@H]1c1cccc(F)c1C (single isomer, unassigned) [Compound 180] | 92.6 | > 100000
CCOC(=O)C1=C(CN2CC(F)(F)[C@@H]3C(=O)N(C[C@@H](C)C(=O)O)C[C@@H]32)NC(c2nccs2)=N[C@H]1c1cccc(F)c1C (single isomer, unassigned) [Compound 181A] | 12.3 | 52900
CCOC(=O)C1=C(CN2CC(F)(F)C3C(=O)N(C[C@H](C)C(=O)O)C[C@@H]32)NC(c2nccs2)=N[C@H]1c1cccc(F)c1C (single isomer, unassigned) [Compound 181B] | 9.5 | 69900
CCOC(=O)C1=C(CN2CC(F)(F)C3C(=O)N(C[C@@H](CC)C(=O)O)C[C@@H]32)NC(c2nccs2)=N[C@H]1c1cccc(F)c1C (single isomer, unassigned) [Compound 182A] | 23.9 | 49600
CCOC(=O)C1=C(CN2CC(F)(F)[C@@H]3C(=O)N(C[C@H](CC)C(=O)O)C[C@@H]32)NC(c2nccs2)=N[C@H]1c1cccc(F)c1C (single isomer, unassigned) [Compound 182B] | 11.3 | 33300
CCOC(=O)C1=C(CN2CC(F)(F)[C@@H]3CN(C[C@@H](CC)C(=O)O)C(=O)C32)NC(c2nccs2)=N[C@H]1c1cccc(F)c1C (single isomer, unassigned) [Compound 183A] | 14.3 | 40300
CCOC(=O)C1=C(CN2CC(F)(F)[C@@H]3CN(C[C@H](CC)C(=O)O)C(=O)[C@@H]32)NC(c2nccs2)=N[C@H]1c1cccc(F)c1C (single isomer, unassigned) [Compound 183B] | 6.4 | 50200
CCOC(=O)C1=C(CN2CC(F)(F)[C@@H]3C(=O)N(CC4(C(=O)O)CC4)C[C@@H]32)NC(c2nccs2)=N[C@H]1c1cccc(F)c1C (single isomer, unassigned) [Compound 184] | 6.7 | 48300
CCOC(=O)C1=C(CN2CC(F)(F)[C@@H]3CN([C@H]4CC[C@@H](C(=O)O)CC4)C(=O)[C@@H]32)NC(c2nccs2)=N[C@H]1c1cccc(F)c1C (single isomer, unassigned) [Compound 185A] | 5.4 | 48300
CCOC(=O)C1=C(CN2CC(F)(F)[C@@H]3CN([C@H]4CC[C@H](C(=O)O)CC4)C(=O)[C@@H]32)NC(c2nccs2)=N[C@H]1c1cccc(F)c1C (single isomer, unassigned) [Compound 185B] | 8.3 | 27600
CCOC(=O)C1=C(CN2CC(F)(F)[C@@H]3C(=O)N(c4ccn(CCC(C)(C)C(=O)O)n4)C[C@@H]32)NC(c2nccs2)=N[C@H]1c1cccc(F)c1C (single isomer, unassigned) [Compound 187] | 81.7 | 33600
CCOC(=O)C1=C(CN2CC(F)(F)[C@@H]3C(=O)N(C(=O)NCC(C)(C)C(=O)O)C[C@@H]32)NC(c2nccs2)=N[C@H]1c1cccc(F)c1C (single isomer, unassigned) [Compound 188] | 62.4 | 32100
CCOC(=O)C1=C(CN2CC(F)(F)[C@@H]3CN(C(=O)NCC(C)(C)C(=O)O)C(=O)[C@@H]32)NC(c2nccs2)=N[C@H]1c1cccc(F)c1C (single isomer, unassigned) [Compound 189] | 18.1 | 28200
CCOC(=O)C1=C(CN2CC(F)(F)C3C(=O)N(C(=O)CC(C)(C)C(=O)O)C[C@@H]32)NC(c2nccs2)=N[C@H]1c1cccc(F)c1C (single isomer, unassigned) [Compound 190] | 4.3 | 28700
CCOC(=O)C1=C(CN2CC(F)(F)[C@@H]3CN(C(=O)CC(C)(C)C(=O)O)C(=O)[C@@H]32)NC(c2nccs2)=N[C@H]1c1cccc(F)c1C (single isomer, unassigned) [Compound 191] | 13.5 | 35900
CCOC(=O)C1=C(CN2CC(F)(F)[C@@H]3CN([C@H]4C[C@@H](C(=O)O)C4)C(=O)[C@@H]32)NC(c2nccs2)=N[C@H]1c1cccc(F)c1C (single isomer, unassigned) [Compound 192] | 16.6 | 52900
CCOC(=O)C1=C(CN2CC(F)(F)[C@@H]3C(=O)N(CCC(C)(C)C(=O)O)C[C@@H]32)NC(c2nccs2)=N[C@H]1c1cccc(F)c1C (single isomer, unassigned) [Compound 193] | 12.1 | 48200
CCOC(=O)C1=C(CN2CC(F)(F)[C@@H]3CN(S(=O)(=O)[C@H]4C[C@H](C(=O)O)C4)C[C@@H]32)NC(c2nccs2)=N[C@H]1c1cccc(F)c1C (single isomer, unassigned) [Compound 194] | 71.3 | 36700
CCOC(=O)C1=C(CN2CC(F)(F)[C@@H]3CN(C(C)(C)C(=O)O)C[C@@H]32)NC(c2nccs2)=N[C@H]1c1cccc(F)c1C (single isomer, unassigned) [Compound 195] | 40.3 | 96600
CCOC(=O)C1=C(CN2CC(F)(F)[C@@H]3CN(C4(C(=O)O)CC4)C[C@@H]32)NC(c2nccs2)=N[C@H]1c1cccc(F)c1C (single isomer, unassigned) [Compound 196] | 3.3 | 12800
CCOC(=O)C1=C(CN2CC(F)(F)[C@@H]3CN(C4(C(=O)O)CC4)C(=O)C32)NC(c2nccs2)=N[C@H]1c1cccc(F)c1C (single isomer, unassigned) [Compound 197] | 14.2 | 26000
CCOC(=O)C1=C(CN2CC(F)(F)[C@@H]3C(=O)N(C4(C(=O)O)CC4)C[C@@H]32)NC(c2nccs2)=N[C@H]1c1cccc(F)c1C (single isomer, unassigned) [Compound 198] | 96 | 99600
CCOC(=O)C1=C(CN2CC(F)(F)[C@@H]3C(=O)N(CC4(C(=O)O)CCCC4)C[C@@H]32)NC(c2nccs2)=N[C@H]1c1cccc(F)c1C (single isomer, unassigned) [Compound 199] | 11.8 | 35900
CCOC(=O)C1=C(CN2CC(F)(F)[C@@H]3C(=O)N(CC(C)(C)c4nn[nH]n4)C[C@@H]32)NC(c2nccs2)=N[C@H]1c1cccc(F)c1C (single isomer, unassigned) [Compound 200] | 34.7 | 91300
CCOC(=O)C1=C(CN2CC(F)(F)[C@@H]3CN(CC(C)(C)C(=O)O)C[C@@H]32)NC(c2nccs2)=N[C@@H]1c1ccc(F)nc1C (single isomer, unassigned) [Compound 201, 3-((cis)-1-((5-(ethoxycarbonyl)-6-(6-fluoro-2-methylpyridin-3-yl)-2-(thiazol-2-yl)-3,6-dihydropyrimidin-4-yl)methyl)-3,3-difluorohexahydropyrrolo[3,4-b]pyrrol-5(1H)-yl)-2,2-dimethylpropanoic acid] | 72.6 | > 100000
CCOC(=O)C1=C(CN2CC(F)(F)[C@@H]3C(=O)N(CC(CC)(CC)C(=O)O)C[C@@H]32)NC(c2nccs2)=N[C@H]1c1cccc(F)c1C (single isomer, unassigned) [Compound 202] | 23 | 100000
CCOC(=O)C1=C(CN2C[C@@H](F)[C@@]3(F)CN(CC(C)(C)C(=O)O)C(=O)[C@@H]23)NC(c2nccs2)=N[C@H]1c1cccc(F)c1C (single isomer, unassigned) [Compound 203A] | 16.7 | 44600
